Assay [1] in a line: In vitro percent inhibition against aggrecanase at the concentration of 1 uM.
In a further assay the target is T1, Interstitial collagenase (Homo sapiens, UniProt P03956).
T1 sequence (P03956 whole entry): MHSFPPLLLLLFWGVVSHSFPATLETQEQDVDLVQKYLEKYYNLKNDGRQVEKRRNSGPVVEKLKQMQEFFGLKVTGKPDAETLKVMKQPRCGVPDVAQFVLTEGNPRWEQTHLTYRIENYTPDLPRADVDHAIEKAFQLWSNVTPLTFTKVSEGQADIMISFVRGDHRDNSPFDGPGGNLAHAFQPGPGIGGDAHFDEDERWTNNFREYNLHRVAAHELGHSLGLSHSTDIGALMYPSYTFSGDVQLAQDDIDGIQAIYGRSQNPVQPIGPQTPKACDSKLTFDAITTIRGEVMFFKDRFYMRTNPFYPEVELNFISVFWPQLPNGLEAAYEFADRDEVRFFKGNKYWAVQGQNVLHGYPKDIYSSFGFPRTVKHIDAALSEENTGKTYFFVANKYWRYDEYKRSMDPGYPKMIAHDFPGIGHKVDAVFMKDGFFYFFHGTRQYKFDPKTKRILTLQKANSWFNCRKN
The assay can be described thus: In vitro binding affinity against matrix metalloprotease 1.

For assay [2], the target named is Disintegrin and metalloproteinase domain-containing protein 17 (Homo sapiens, UniProt P78536). Briefly: In vitro inhibitory concentration against human tumor necrosis factor-alpha converting enzyme.
In assay [3] the target is 72 kDa type IV collagenase (Homo sapiens, UniProt P08253). Briefly: In vitro binding affinity against matrix metalloprotease 2.
The target of the next assay is Collagenase 3 (Homo sapiens, UniProt P45452). The assay can be described thus: In vitro binding affinity against matrix metalloprotease 13.
Assay [4] addresses Matrix metalloproteinase-9 (Homo sapiens, UniProt P14780). The assay can be described thus: In vitro binding affinity against matrix metalloprotease 9.

Results on 20 compounds are retold here after ChEMBL document CHEMBL1139608, “Non-hydroxamate 5-phenylpyrimidine-2,4,6-trione derivatives as selective inhibitors of tumor necrosis factor-alpha converting enzyme” (Bioorg Med Chem Lett, 2005).

Sequence of 72 kDa type IV collagenase (P08253 whole entry): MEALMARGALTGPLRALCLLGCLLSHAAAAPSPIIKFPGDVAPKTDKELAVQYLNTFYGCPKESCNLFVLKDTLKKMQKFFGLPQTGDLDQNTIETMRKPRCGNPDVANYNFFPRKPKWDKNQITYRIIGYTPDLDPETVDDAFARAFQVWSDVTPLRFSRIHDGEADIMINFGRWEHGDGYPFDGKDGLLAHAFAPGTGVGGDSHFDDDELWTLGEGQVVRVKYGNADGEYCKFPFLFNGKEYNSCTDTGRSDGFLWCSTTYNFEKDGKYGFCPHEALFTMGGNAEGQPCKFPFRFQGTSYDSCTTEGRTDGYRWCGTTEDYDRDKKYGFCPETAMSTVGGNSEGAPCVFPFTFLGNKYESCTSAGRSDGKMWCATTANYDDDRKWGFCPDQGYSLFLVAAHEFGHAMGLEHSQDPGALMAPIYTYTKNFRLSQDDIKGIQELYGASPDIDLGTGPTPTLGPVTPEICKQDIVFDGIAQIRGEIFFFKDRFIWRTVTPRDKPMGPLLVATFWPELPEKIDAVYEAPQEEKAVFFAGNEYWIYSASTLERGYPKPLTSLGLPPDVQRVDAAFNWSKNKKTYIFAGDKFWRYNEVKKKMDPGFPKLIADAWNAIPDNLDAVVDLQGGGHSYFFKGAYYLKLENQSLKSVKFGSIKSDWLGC
Sequence of Disintegrin and metalloproteinase domain-containing protein 17 (P78536 whole entry, the tested form may be a part): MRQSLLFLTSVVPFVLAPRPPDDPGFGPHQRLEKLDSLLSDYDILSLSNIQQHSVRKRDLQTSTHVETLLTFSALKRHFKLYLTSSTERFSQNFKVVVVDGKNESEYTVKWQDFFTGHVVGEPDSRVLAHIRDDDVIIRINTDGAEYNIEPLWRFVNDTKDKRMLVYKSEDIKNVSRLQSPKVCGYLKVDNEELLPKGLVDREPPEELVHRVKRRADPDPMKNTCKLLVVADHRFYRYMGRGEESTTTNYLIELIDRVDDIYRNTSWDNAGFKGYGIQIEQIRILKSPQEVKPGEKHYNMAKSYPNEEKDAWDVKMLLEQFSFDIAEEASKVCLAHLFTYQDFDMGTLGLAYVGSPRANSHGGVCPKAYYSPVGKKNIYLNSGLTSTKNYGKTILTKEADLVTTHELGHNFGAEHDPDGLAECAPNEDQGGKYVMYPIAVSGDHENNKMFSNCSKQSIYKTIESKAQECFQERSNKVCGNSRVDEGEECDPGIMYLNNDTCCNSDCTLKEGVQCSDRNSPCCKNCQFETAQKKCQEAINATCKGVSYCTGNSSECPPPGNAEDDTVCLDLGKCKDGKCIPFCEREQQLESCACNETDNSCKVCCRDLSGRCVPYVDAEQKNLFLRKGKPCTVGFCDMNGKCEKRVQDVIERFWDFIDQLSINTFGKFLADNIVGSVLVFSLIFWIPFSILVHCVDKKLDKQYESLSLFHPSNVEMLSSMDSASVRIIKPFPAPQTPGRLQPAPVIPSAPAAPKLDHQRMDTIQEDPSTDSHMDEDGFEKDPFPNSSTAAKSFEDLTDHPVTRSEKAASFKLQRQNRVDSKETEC
Sequence of Matrix metalloproteinase-9 (P14780 whole entry): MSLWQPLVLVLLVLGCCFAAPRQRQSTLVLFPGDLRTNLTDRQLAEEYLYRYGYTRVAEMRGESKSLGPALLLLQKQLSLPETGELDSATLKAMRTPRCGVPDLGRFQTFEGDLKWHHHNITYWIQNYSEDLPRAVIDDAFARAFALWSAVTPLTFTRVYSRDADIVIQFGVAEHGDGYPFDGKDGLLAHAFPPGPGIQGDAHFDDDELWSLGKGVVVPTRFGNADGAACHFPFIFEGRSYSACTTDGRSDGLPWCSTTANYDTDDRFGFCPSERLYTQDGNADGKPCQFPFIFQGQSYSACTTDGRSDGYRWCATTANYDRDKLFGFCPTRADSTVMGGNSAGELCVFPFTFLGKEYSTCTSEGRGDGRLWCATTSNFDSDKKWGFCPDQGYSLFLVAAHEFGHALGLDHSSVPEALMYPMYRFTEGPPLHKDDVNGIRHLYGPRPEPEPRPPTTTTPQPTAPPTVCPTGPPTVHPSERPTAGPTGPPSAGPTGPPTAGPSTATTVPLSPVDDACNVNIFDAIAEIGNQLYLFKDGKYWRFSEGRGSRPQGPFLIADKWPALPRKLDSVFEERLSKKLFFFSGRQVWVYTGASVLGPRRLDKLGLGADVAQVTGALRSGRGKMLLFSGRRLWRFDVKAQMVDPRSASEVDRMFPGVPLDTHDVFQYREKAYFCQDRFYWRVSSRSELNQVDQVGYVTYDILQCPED

Turning to `CCCCCCN1CCN(C2(c3ccc(OCc4cc(C)nc5ccccc45)cc3)C(=O)NC(=O)NC2=O)CC1`, the inhibition in assay [1] is 12%. For the same compound, the Ki at Interstitial collagenase was more than 4.95 µM; in assay [3], more than 3.33 µM; on Collagenase 3, more than 5.02 µM; in assay [4] it was more than 2.13 µM. Besides, the IC50 in assay [2] amounted to 0.081 µM.
In turn, `Cc1cc(COc2ccc(C3(N4CCN(c5ccc([N+](=O)[O-])cc5)CC4)C(=O)NC(=O)NC3=O)cc2)c2ccccc2n1` came in with an inhibition in assay [1] of 0%. Besides, the Ki on Interstitial collagenase was more than 4.35 µM; in assay [3], 0.116 µM; at Collagenase 3, 0.356 µM; in assay [4] it was 0.138 µM. Further, the half-maximal inhibitory concentration (IC50) in assay [2] is 2.8 µM.
`Cc1cc(COc2ccc(C3(N4CCCCC4)C(=O)NC(=O)NC3=O)cc2)c2ccccc2n1` gave an inhibition in assay [1] of 0%. Moreover, the Ki on Interstitial collagenase is more than 4.95 µM; in assay [3] it was more than 3.33 µM; at Collagenase 3 it was more than 5.02 µM; in assay [4] it was more than 2.13 µM. This compound also yielded an IC50 in assay [2] of 0.855 µM.
`Cc1cc(COc2ccc(C3(N4CCN(S(C)(=O)=O)CC4)C(=O)NC(=O)NC3=O)cc2)c2ccccc2n1`: the inhibition in assay [1] turned out to be 5%. The Ki on Interstitial collagenase is more than 4.95 µM; in assay [3] it was more than 3.33 µM; at Collagenase 3, more than 5.02 µM; in assay [4], more than 2.13 µM. The compound also displayed an IC50 in assay [2] of 0.275 µM.
`Cc1cc(COc2ccc(C3(N4CCOCC4)C(=O)NC(=O)NC3=O)cc2)c2ccccc2n1` yielded an inhibition in assay [1] of 1%. For the same compound, the inhibitory constant (Ki) at Interstitial collagenase was more than 4.95 µM; in assay [3], more than 3.33 µM; on Collagenase 3 it was more than 5.02 µM; in assay [4], more than 2.13 µM. Further, inhibition in assay [2] was half-maximal at 0.535 µM (IC50).
Regarding `Cc1cc(COc2ccc(C3(N4CCNCC4)C(=O)NC(=O)NC3=O)cc2)c2ccccc2n1`, the inhibition in assay [1] was 0%. Also, the Ki was more than 4.95 µM at Interstitial collagenase, more than 3.33 µM in assay [3], more than 5.02 µM at Collagenase 3 and more than 2.13 µM in assay [4]. Also, the IC50 in assay [2] turned out to be 1.1 µM.
Compound `CC(=O)c1ccc(N2CCN(C3(c4ccc(OCc5cc(C)nc6ccccc56)cc4)C(=O)NC(=O)NC3=O)CC2)cc1` registered an inhibition in assay [1] of 8%. For the same compound, the inhibition constant Ki on Interstitial collagenase is more than 4.95 µM; in assay [3] it was more than 3.33 µM; at Collagenase 3 it was more than 5.02 µM; in assay [4], more than 2.13 µM. Further, in assay [2], the IC50 came to 0.62 µM.
Consider `CC1(c2ccc(OCc3ccccc3)cc2)C(=O)NC(=O)NC1=O`, for which the inhibition in assay [1] is 0%. Further, the Ki at Interstitial collagenase was more than 4.95 µM; in assay [3], 0.6 µM; on Collagenase 3 it was 4.02 µM; in assay [4], more than 2.13 µM. This compound yielded an IC50 in assay [2] of more than 100 µM.
`Cc1cc(COc2ccc(C3(N4CCN(C(C)C)CC4)C(=O)NC(=O)NC3=O)cc2)c2ccccc2n1`: the inhibition in assay [1] amounted to 0%. Further, the Ki at Interstitial collagenase was more than 4.95 µM; in assay [3], more than 3.33 µM; at Collagenase 3 it was more than 5.02 µM; in assay [4] it was more than 2.13 µM. In addition, the midpoint of inhibition in assay [2], the IC50, lay at 0.096 µM.
As for `Cc1cc(COc2ccc(C3(N4CCN(Cc5ccccc5)CC4)C(=O)NC(=O)NC3=O)cc2)c2ccccc2n1`, in assay [1], the inhibition is 5%. Besides, the inhibition constant (Ki) at Interstitial collagenase is more than 4.95 µM; in assay [3], more than 3.33 µM; on Collagenase 3, more than 5.02 µM; in assay [4], more than 2.13 µM. In assay [2], this compound displayed a concentration for half-maximal inhibition (IC50) of 0.195 µM.
In assay [1], `Cc1cc(COc2ccc(C3(C)C(=O)NC(=O)NC3=O)cc2)c2ccccc2n1` came in with an inhibition of 0%. In addition, the Ki at Interstitial collagenase was more than 4.95 µM; in assay [3] it was more than 3.33 µM; at Collagenase 3, 5.02 µM; in assay [4], more than 2.13 µM. This compound also displayed a half-inhibitory concentration (IC50) in assay [2] of 1.03 µM.
Take `Cc1cc(COc2ccc(C3(N4CCN(C(=O)C(C)(C)C)CC4)C(=O)NC(=O)NC3=O)cc2)c2ccccc2n1`: in assay [1], the inhibition came out at 0%. The Ki at Interstitial collagenase was more than 4.95 µM; in assay [3], more than 3.33 µM; on Collagenase 3 it was more than 5.02 µM; in assay [4], more than 2.13 µM. Besides, in assay [2], half-maximal inhibition (IC50) required 5.4 µM.
Take `Cc1cc(COc2ccc(C3(N4CCN(CC(C)(C)C)CC4)C(=O)NC(=O)NC3=O)cc2)c2ccccc2n1`: the inhibition in assay [1] came to 10%. The Ki is more than 4.95 µM on Interstitial collagenase, more than 3.33 µM in assay [3], more than 5.02 µM on Collagenase 3 and more than 2.13 µM in assay [4]. The midpoint of inhibition in assay [2], the IC50, lay at 0.16 µM.
For `Cc1cc(COc2ccc(C3(N4CCN(CCCc5ccccc5)CC4)C(=O)NC(=O)NC3=O)cc2)c2ccccc2n1`, in assay [1], the inhibition is 12%. Besides, the Ki was more than 4.95 µM at Interstitial collagenase, 3.1 µM in assay [3], 5.02 µM at Collagenase 3 and 2.04 µM in assay [4]. Further, in assay [2], the IC50 was 0.11 µM.
For the compound `Cc1cc(COc2ccc(C3(N4CCN(C(=O)OC(C)(C)C)CC4)C(=O)NC(=O)NC3=O)cc2)c2ccccc2n1`, the inhibition in assay [1] was found to be 10%. Moreover, the Ki on Interstitial collagenase was more than 4.95 µM; in assay [3], more than 3.33 µM; at Collagenase 3 it was more than 5.02 µM; in assay [4] it was more than 2.13 µM. The compound further registered an IC50 in assay [2] of 0.16 µM.
`CC1(c2ccc(O)cc2)C(=O)NC(=O)NC1=O` displayed an inhibition in assay [1] of 0%. For the same compound, the Ki at Interstitial collagenase was more than 4.95 µM; in assay [3], 2.53 µM; at Collagenase 3, more than 5.02 µM; in assay [4], 0.85 µM. Also, in assay [2], the half-inhibitory concentration (IC50) is more than 100 µM.
`Cc1cc(COc2ccc(C3(N4CCN(CCc5ccccc5)CC4)C(=O)NC(=O)NC3=O)cc2)c2ccccc2n1` displayed an inhibition in assay [1] of 38%. The Ki is more than 4.95 µM on Interstitial collagenase, 0.083 µM in assay [3], 0.095 µM on Collagenase 3 and 0.085 µM in assay [4]. Further, in assay [2], inhibition was half-maximal at 0.084 µM (IC50).
Regarding `CC1(c2ccc(Oc3ccccc3)cc2)C(=O)NC(=O)NC1=O`, the inhibition constant (Ki) in assay [3] is 0.08 µM; on Collagenase 3, 0.065 µM; in assay [4], 0.052 µM.
As to `Cc1cc(COc2ccc(C3(N4CCN(C)CC4)C(=O)NC(=O)NC3=O)cc2)c2ccccc2n1`, the inhibition in assay [1] stood at 37%. Besides, the Ki was more than 4.95 µM at Interstitial collagenase, more than 3.33 µM in assay [3], more than 5.02 µM on Collagenase 3 and more than 2.13 µM in assay [4]. Besides, the IC50 in assay [2] turned out to be 0.091 µM.
In the case of `Cc1cc(COc2ccc3cc(C4(C)C(=O)NC(=O)NC4=O)ccc3c2)c2ccccc2n1`, in assay [1], the inhibition came to 1%. The IC50 in assay [2] is more than 100 µM. Also, in assay [3], the Ki was 3.33 µM.

The term inhibition denotes the drop in the measured response relative to a control, in per cent. Higher therefore signals a response far below the control. As usually defined, the Ki is the dissociation constant of the complex between target and ligand, obtained from inhibition or displacement. In general, IC50 refers to the midpoint of a concentration-inhibition curve. A low value points to greater potency in that assay.
